Patent publication US8497278B2, “Imidazo[1,2-a]pyridine compounds” (priority 2008, dated 2013)

What was measured:
[1] = test system: central benzodiazepine receptors; experiment: Central benzodiazepine receptor binding (test of Speth et al.); settings: 1000 nM of the compound
Outline: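 Values are percent inhibition of central benzodiazepine receptor binding at 1000 nM compound (initial single-point screen at 1.0E-09, 1.0E-07 and 1.0E-05 M). Speth et al. binding test; nonspecific binding defined with excess unlabelled ligand and subtracted from total.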

[2] = molecular target: T1, α1 subtype containing GABA-A receptors (Homo sapiens, UniProt P14867+P18507); experiment: Two-electrode voltage clamp electrophysiology in Xenopus oocytes, potentiation of GABA EC20 response, α1; type: cell-based; settings: 100 nM compound; for activation at 0.1 µM: read-out: Percentage of potentiation alpha1
T1 construct: expressed in transfected cells; host or cells: Xenopus laevis oocytes, cRNA injected
Outline: (§1)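 TEVC, oocytes expressing human αx/β3/γ2L GABA-A; Vh −80 mV; ND96 pH 7.5 perfusion. 3 × 20-s GABA EC20 (60 μM) baseline → 1 μM CDP standard → compound 100 nM. Low-current or poorly γ2L-incorporating oocytes excluded.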

[3] = molecular target: T2, α2 subtype containing GABA-A receptors (Homo sapiens, UniProt P18507+P47869); experiment: Two-electrode voltage clamp electrophysiology in Xenopus oocytes, potentiation of GABA EC20 response, α2; type: cell-based; settings: 100 nM compound; for activation at 0.1 µM: read-out: Percentage of potentiation alpha2
T2 construct: expressed in transfected cells; host or cells: Xenopus laevis oocytes, cRNA injected
Outline: as §1

[4] = test system: Swiss Webster (CFW) mice; experiment: Four Plate Test (FPT); type: in vivo; settings: mouse, 30 min before test, 2 min session
Excerpt: Four Plate Test (FPT) Protocol: The four plate test (FPT) is an animal model of anxiety in which simple ongoing behavior (exploration of novel surroundings) is suppressed by the delivery of mild electric foot-shock contingent to quadrant crossing (Aron, et al., 1971). Clinically effective classes of anxiolytic compounds such as benzodiazepines, selective serotonin reuptake inhibitors, or 5-HT1A receptor agonists produce a marked anti-punishment effect (an increase in punished crossings), which is thought to indicate anxiolytic activity (Aron, et al., 1971; Bourin, et al., 1992; Hascoet, et al., 2000; Ring, et al., 2006). The four plate apparatus (Bioseb, Chaville France) consists of a cage (18×25×16 cm) floored by four identical rectangular metal plates (8×11 cm) separated from one another by a gap of 4 mm. The plates are connected to a shocker unit that can generate electric foot shocks.
Male Swiss Webster (CFW) mice from Charles River (Wilmington, Mass.) were used for the FPT. Mice were received at 3-weeks of age. Upon receipt, mice were assigned unique identification numbers (tail marked) and were group housed with 4 mice per cage in mouse ventilated racks. All animals remained housed in groups of four during the remainder of the study. All mice were acclimated to the colony room for at least one week prior to testing and were subsequently tested at an average age of 4 weeks of age. During the period of acclimation, mice […] were examined on a regular basis, handled, and weighed to assure adequate healtH, D and suitability. Animals were maintained on a 12/12 light/dark cycle. The room temperature was maintained between 20 and 23° C. with a relative humidity maintained between 30% and 70%. Chow and water were provided ad libitum for the duration of the study. In each test, animals were randomly assigned across treatment groups. Alprazolam (0.3 mg/kg) was used as the positive control. Compounds of the present invention, vehicle (45% hydroxypropyl beta-cyclodextrin) and alprazolam were administered orally to all groups (n=10 mice per group) 30 minutes prior to behavioral testing. Following pretreatment, mice were gently placed in the four plate chamber and allowed to explore the enclosure for 18 seconds. After the exploration period, every time the mouse crossed from one plate to another, the experimenter, blind to the dosing conditions, administered a mild electric foot-shock, and referred to as a punished crossing. The intensity and duration of the foot-shock were 0.5 mA for 0.5 seconds. The number of punished crossings was recorded during the 2 min test session. The plates were thoroughly cleaned with 70% ethanol immediately after each mouse. All data were analyzed using an analysis of variance (ANOVA) followed by Fisher's PLSD post hoc test. An effect was considered significance if p<0.05. Statistical outliers above or below 2 standard deviations from the mean in any of the […] were removed from the final analysis.

[5] = test system: rhesus monkeys; experiment: Rhesus monkey conflict test; type: in vivo; settings: cumulative dosing
Excerpt: Conflict protocol: The conflict procedure is a well established operant conditioning approach to evaluate anxiolytic-like effects of test compounds. In this procedure, positively-reinforced behavior is suppressed by response-contingent administration of a noxious stimulus (i.e., mild electric shock). Compounds with anxiolytic effects in humans (e.g., benzodiazepines) characteristically increase rates of responding that are suppressed by shock and are referred to as anti-conflict or anxiolytic-like effects. […] In addition to anxiolytic-like effects, conflict procedures also provide an assessment of the ability of the animal to perform operant lever pressing. This is typically assessed by including lever pressing in the absence of the noxious stimulus. Most anxiolytic compounds will decrease rates of responding in the absence of shock at doses higher than those that induce anxiolytic-like effects. The effects contributing to anxiolytic-induced decreases in non-suppressed responding are not well understood, but likely consist of a combination of motor co-ordination deficits and sedative effects.
Adult rhesus monkeys were used in these studies (n=1-4). Weights of the monkeys ranged from 6.2 to 10.5 kg. The animals had been previously trained using the conflict procedure. Animals were maintained at 85-95% of their free-feeding weights by manipulation of food intake. Monkeys were individually housed with water available ad libitum, and maintained on a 12 hour lights-on/12 hour lights-off cycle (lights on at 0600 a.m.). Monkeys received Harlan Teklad diet (15% Primate Diet) as well as supplemental feeding (fruits, vegetables, and commercially available primate treats) daily. They were also given toys and video enrichment when not in an experimental session. Each animal was prepared prior to the study with a chronic indwelling venous catheter for drug delivery. A polyvinyl chloride catheter was implanted in a jugular, femoral or brachial vein under isoflurane anesthesia and aseptic conditions. The proximal end of the catheter terminated above the right atrium, and the distal end was passed subcutaneously to exit in the midscapular region. Experimental sessions began 5-7 days following surgery. Catheters had been implanted approximately 3 months to 1 year prior to the initiation of the study. During experimental sessions, monkeys were seated in primate chairs that were placed in ventilated sound-attenuating chambers. A single response lever was mounted on the wall of the chamber in front of the monkey. Each press of a lever produced an audible click and was recorded as a response via electromechanical equipment, a computer interface, and PC with specialized software. Food pellets could be delivered into a tray located next to the lever. Mild electric shock could be delivered to the bottom of the feet via brass electrodes that were fitted to shoes. Red and green lights mounted above the levers could be illuminated to serve as visual stimuli.
Monkeys were trained under a multiple schedule of food reinforcement adapted from Spealman (1979). A daily session consisted of 4 cycles, each preceded by a 10-min time out period in which all lights in the chamber were off and responding had no programmed consequences. Each cycle consisted of two components, component 1 and 2. Component 1 was signaled by red stimulus lights and consisted of an 18-response schedule (FR18) of food pellet delivery (i.e., the animal receives a food pellet following 18 responses). Component 2, signaled by green stimulus lights, followed immediately and consisted of the FR18 schedule of food delivery combined with a FR20 schedule of foot shock delivery (1.5-3.0 mA, adjusted for each monkey based on individual performance, 0.25 sec duration). Delivery of a food pellet (FR18 schedule) was followed by a 10 sec time out in which responses had no programmed consequences. […]

T2 sequence (P47869 29-451): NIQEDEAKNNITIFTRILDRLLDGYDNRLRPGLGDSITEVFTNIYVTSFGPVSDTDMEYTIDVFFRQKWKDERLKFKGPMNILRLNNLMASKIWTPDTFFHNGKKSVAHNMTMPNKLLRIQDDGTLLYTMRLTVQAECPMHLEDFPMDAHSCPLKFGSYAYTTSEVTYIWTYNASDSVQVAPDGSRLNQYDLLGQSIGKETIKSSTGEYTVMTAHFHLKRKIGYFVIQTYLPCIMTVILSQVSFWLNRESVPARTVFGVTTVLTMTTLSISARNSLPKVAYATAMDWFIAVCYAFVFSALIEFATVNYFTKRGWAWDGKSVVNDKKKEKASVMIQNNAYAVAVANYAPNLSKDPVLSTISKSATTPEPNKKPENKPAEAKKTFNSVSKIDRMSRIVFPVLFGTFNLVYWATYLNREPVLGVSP
T2 sequence (P28472 26-473 partner): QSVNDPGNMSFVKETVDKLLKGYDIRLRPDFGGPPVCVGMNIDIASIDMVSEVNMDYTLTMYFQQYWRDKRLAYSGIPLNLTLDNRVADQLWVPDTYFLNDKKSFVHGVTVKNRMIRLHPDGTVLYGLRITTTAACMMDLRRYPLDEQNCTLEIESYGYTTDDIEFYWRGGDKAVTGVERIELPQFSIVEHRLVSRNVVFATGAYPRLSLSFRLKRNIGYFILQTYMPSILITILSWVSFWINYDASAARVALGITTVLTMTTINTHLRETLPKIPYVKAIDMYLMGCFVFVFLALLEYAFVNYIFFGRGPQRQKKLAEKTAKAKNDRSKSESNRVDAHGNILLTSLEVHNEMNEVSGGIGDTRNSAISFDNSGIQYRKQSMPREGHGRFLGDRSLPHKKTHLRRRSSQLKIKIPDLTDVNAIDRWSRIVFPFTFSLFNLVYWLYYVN
T2 sequence (P18507 40-475): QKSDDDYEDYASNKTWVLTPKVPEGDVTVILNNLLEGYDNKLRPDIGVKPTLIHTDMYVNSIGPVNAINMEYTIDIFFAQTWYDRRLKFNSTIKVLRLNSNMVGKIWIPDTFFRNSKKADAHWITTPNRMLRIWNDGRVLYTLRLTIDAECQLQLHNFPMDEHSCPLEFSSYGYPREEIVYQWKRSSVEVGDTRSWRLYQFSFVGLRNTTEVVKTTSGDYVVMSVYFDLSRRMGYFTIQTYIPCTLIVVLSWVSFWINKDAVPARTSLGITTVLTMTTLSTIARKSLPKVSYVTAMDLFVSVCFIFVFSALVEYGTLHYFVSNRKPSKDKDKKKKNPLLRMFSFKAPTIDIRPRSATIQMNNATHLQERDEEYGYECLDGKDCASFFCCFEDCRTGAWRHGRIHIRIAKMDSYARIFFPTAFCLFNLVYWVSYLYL
T1 sequence (P14867 28-456): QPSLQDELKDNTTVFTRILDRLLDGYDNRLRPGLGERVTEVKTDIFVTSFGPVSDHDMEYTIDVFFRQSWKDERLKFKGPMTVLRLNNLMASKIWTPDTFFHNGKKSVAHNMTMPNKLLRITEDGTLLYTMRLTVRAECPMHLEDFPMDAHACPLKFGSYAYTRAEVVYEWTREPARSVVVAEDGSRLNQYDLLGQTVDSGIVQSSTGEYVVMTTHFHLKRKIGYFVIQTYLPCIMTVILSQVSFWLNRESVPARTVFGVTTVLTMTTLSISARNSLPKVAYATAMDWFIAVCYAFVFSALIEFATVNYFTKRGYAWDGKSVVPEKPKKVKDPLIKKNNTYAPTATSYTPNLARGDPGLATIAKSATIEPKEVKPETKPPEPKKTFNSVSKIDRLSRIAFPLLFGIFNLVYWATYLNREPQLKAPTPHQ
T1 sequence (P28472 26-473 partner): as the sequence (P28472 26-473 partner) above
T1 sequence (P18507 40-475): as the sequence (P18507 40-475) above

Structure (SMILES)	% Inhibition at 1000 nM for CBZD [1]	activation at 0.1 µM [2]	activation at 0.1 µM [3]	also measured
Fc1ccc(-c2nc3ccc(F)cn3c2Cn2nccn2)cc1 [Compound 60, 3-((2H-1,2,3-triazol-2-yl)methyl)-6-fluoro-2-(4-fluorophenyl)H-imidazo[1,2-a]pyridine]	++ (percentage of inhibition of central BZD site binding is greater than 80% in the presence of 1000 nM of the compound)			Percentage of potentiation alpha1 [2]: 0 (percentage of potentiation is between about 10% to about −10%); Percentage of potentiation alpha2 [3]: + (percentage of potentiation is greater than or equal to 10% but less than 50% in the presence of 100 nM of the compound); Number of Punished Crossings Mean ± S.E.M. ([4]; 3 mg/kg PO): 6.3 ± 0.45; Number of Punished Crossings Mean ± S.E.M. ([4]; 10 mg/kg PO): 6.3 ± 0.70; Number of Punished Crossings Mean ± S.E.M. ([4]; 30 mg/kg PO): 6.0 ± 0.30
Cc1nnc2n1-c1ccc(Cl)cc1C(c1ccccc1)=NC2 [Alprazolam, reference compound]				Non-Suppressed Response Rates Mean ± S.E.M. ([5]; 0.003 mg/kg IV): 2.18 ± 0.26 Responses/Second; Suppressed Response Rates Mean ± S.E.M. ([5]; 0.003 mg/kg IV): 0.04 ± 0.02 Responses/Second; Non-Suppressed Response Rates Mean ± S.E.M. ([5]; 0.01 mg/kg IV): 2.62 ± 0.32 Responses/Second; Suppressed Response Rates Mean ± S.E.M. ([5]; 0.01 mg/kg IV): 0.76 ± 0.26 Responses/Second; Non-Suppressed Response Rates Mean ± S.E.M. ([5]; 0.03 mg/kg IV): 2.38 ± 0.36 Responses/Second; Suppressed Response Rates Mean ± S.E.M. ([5]; 0.03 mg/kg IV): 2.28 ± 0.55 Responses/Second; Non-Suppressed Response Rates Mean ± S.E.M. ([5]; 0.1 mg/kg IV): 1.16 ± 0.26 Responses/Second; Suppressed Response Rates Mean ± S.E.M. ([5]; 0.1 mg/kg IV): 1.44 ± 0.57 Responses/Second
NC(=O)c1nccn1Cc1c(-c2ccc(Cl)cc2)nc2ccccn12 [Compound 76, 1-((2-(4-chlorophenyl)H-imidazo[1,2-a]pyridin-3-yl)methyl)-1H-imidazole-2-carboxamide]	++ (percentage of inhibition of central BZD site binding is greater than 80% in the presence of 1000 nM of the compound)			Percentage of potentiation alpha1 [2]: 0 (percentage of potentiation is between about 10% to about −10%); Percentage of potentiation alpha2 [3]: + (percentage of potentiation is greater than or equal to 10% but less than 50% in the presence of 100 nM of the compound); Number of Punished Crossings Mean ± S.E.M. ([4]; 3 mg/kg PO): 6.7 ± 0.45; Number of Punished Crossings Mean ± S.E.M. ([4]; 10 mg/kg PO): 6.9 ± 0.35; Number of Punished Crossings Mean ± S.E.M. ([4]; 30 mg/kg PO): 6.3 ± 0.62
CCOC(=O)c1cc(C)n(Cc2c(-c3ccc(Cl)cc3)nc3ccccn23)n1 [Compound 29, ethyl 1-((2-(4-chlorophenyl)imidazo[1,2-a]pyridin-3-yl)methyl)-5-methyl-1H-pyrazole-3-carboxylate]	++ (percentage of inhibition of central BZD site binding is greater than 80% in the presence of 1000 nM of the compound)	≥ 50%	≥ 50%	
CNC(=O)c1ncnn1Cc1c(-c2ccc(Cl)cc2)nc2cccnn12 [Compound 90, 1-((2-(4-chlorophenyl)imidazo[1,2-b]pyridazin-3-yl)methyl)-N-methyl-1H-1,2,4-triazole-5-carboxamide]	++ (percentage of inhibition of central BZD site binding is greater than 80% in the presence of 1000 nM of the compound)	10 to 50%	10 to 50%	
Fc1ccc(-c2nc3ccc(Cl)cn3c2CNc2nccc(C3CCCN3)n2)cc1 (centres unmarked) [Compound 195]	++ (percentage of inhibition of central BZD site binding is greater than 80% in the presence of 1000 nM of the compound)	≥ 50%	≥ 50%	
CNNc1cncc(Cc2c(-c3ccc(Cl)cc3)nc3ccccn23)n1 [Compound 193, 2-(4-chlorophenyl)-3-((6-(2-methylhydrazinyl)pyrazin-2-yl)methyl)imidazo[1,2-a]pyridine]	++ (percentage of inhibition of central BZD site binding is greater than 80% in the presence of 1000 nM of the compound)	10 to 50%	10 to 50%	
O=c1nc(N2CCCC2)ccn1Cc1c(-c2ccc(Cl)cc2)nc2ccccn12 [Compound 136, 1-((2-(4-chlorophenyl)imidazo[1,2-a]pyridin-3-yl)methyl)-4-(pyrrolidin-1-yl)pyrimidin-2(1H)-one]	++ (percentage of inhibition of central BZD site binding is greater than 80% in the presence of 1000 nM of the compound)	10 to 50%	≥ 50%	
Cc1ccc(-c2nc3ccc(C)cn3c2CSc2nnc(C)s2)cc1 [Compound 179, 6-Methyl-3-(5-methyl-[1,3,4]thiadiazol-2-ylsulfanylmethyl)-2-p-tolyl-imidazo[1,2-a]pyridine]	++ (percentage of inhibition of central BZD site binding is greater than 80% in the presence of 1000 nM of the compound)	-10 to 10%	-10 to 10%	
